Measurements taken from patent publication US11000708B2 (priority 2015, dated 2021).
Like-named read-outs stand apart in the source and are kept apart here.

Assays:
[1] = tested on: M. tuberculosis H37Rv (ATCC 27294); settings: reported abroad; cited from earlier work
[2] = tested on: Mycobacterium tuberculosis; settings: against Mycobacterium tuberculosis; reported domestically; cited from earlier work
drug-resistant bacteria = settings: reported domestically; cited from earlier work
[3] = tested on: sensitive Mycobacterium tuberculosis; settings: reported domestically; cited from earlier work
[4] = tested on: Mycobacterium tuberculosis standard strains H37Rv; settings: quality control H37Rv

In the case of `CC[C@H]1OC(=O)[C@H](C)[C@@H](O[C@H]2C[C@@](C)(OC)[C@@H](O)[C@H](C)O2)[C@H](C)[C@@H](O[C@@H]2O[C@H](C)C[C@H](N(C)C)[C@H]2O)[C@](C)(O)C[C@@H](C)CN(C)[C@H](C)[C@@H](O)[C@]1(C)O` [azithromycin], the MIC [1] is given as 95 micrograms/milliliter and the MIC [2] is given as 128 micrograms/milliliter.

For `CC[C@H]1OC(=O)[C@H](C)[C@@H](O[C@H]2C[C@@](C)(OC)[C@@H](O)[C@H](C)O2)[C@H](C)[C@@H](O[C@@H]2O[C@H](C)C[C@H](N(C)C)[C@H]2O)[C@](C)(OC)C[C@@H](C)C(=O)[C@H](C)[C@@H](O)[C@]1(C)O` [clarithromycin], the MIC (drug-resistant bacteria) is given as 2.0-32 micrograms/milliliter, the MIC [3] is given as 0.25-2.0 micrograms/milliliter and the MIC [1] is given as 6 micrograms/milliliter.

For `CC[C@H]1OC(=O)[C@H](C)[C@@H](O[C@H]2C[C@@](C)(OC)[C@@H](O)[C@H](C)O2)[C@H](C)[C@@H](O[C@@H]2O[C@H](C)C[C@H](N(C)C)[C@H]2O)[C@](C)(O)C[C@@H](C)/C(=N\OCOCCOC)[C@H](C)[C@@H](O)[C@]1(C)O` [roxithromycin], the MIC [1] is listed as “greater than or equal to 64 micrograms/milliliter”.

For `CC[C@H]1OC(=O)C[C@@H](O)[C@H](C)[C@@H](O[C@@H]2O[C@H](C)[C@@H](O[C@H]3C[C@@](C)(O)[C@@H](O)[C@H](C)O3)[C@H](N(C)C)[C@H]2O)[C@@H](CC=O)C[C@@H](C)C(=O)/C=C/C(C)=C/[C@@H]1CO[C@@H]1O[C@H](C)[C@@H](O)[C@@H](OC)[C@H]1OC` [tylosin], the MIC [1] is given as 58.6 micrograms/milliliter.

With carrimycin the “growth of bacterial colonies on drug-containing culture medium” value ([4]; carrimycin 1 μg/ml) was 4+ (positive (4+) if the bacterial colonies closely grow on the slant face of the culture medium and account for ¾ or more of the area of the slant face) and the “growth of bacterial colonies on drug-containing culture medium” value ([4]; carrimycin 20 μg/ml) was “−”.
